Here are results for five compounds from patent US9061984B2 (University of Louisville Research Foundation, Inc., priority 2008, dated 2015).

Converted amounts (≈) assume the structure as drawn. “And” between values parts separate entries of the source, which are not always exact repeats. Equal entries are not always repeated. Where two headings read alike, the source gives them in different places. Some results are limits rather than exact numbers.

The test system of one data set is MCF-7 cells. In words: Cell growth inhibition bioassay (sulforhodamine B). The data set is classed as cell-based, human. To be noted: 48 h, SRB; for GI50: Homo sapiens, MCF7, read-out: GI50 in indicated cell line: MCF-7. The essentials: (§1)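 Cytotoxicity is read by sulforhodamine B colorimetry following the Skehan protocol; values are growth inhibition relative to solvent-only wells.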

The next data set concerns H460 cells. In words: Cell growth inhibition bioassay (sulforhodamine B). The data set is classed as cell-based, human. Particulars: 48 h, SRB; for GI50: Homo sapiens, NCI-H460, read-out: GI50 in indicated cell line: H460. Summed up:
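Growth inhibition was measured colorimetrically with sulforhodamine B staining and expressed as percent inhibition relative to solvent-treated controls. Cell lines were human: MCF-7 breast adenocarcinoma, DU145 and PC3 prostate carcinoma/adenocarcinoma, H460 large cell lung cancer.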

For a further data set, the system named is M-14 cells. Description: Cell growth inhibition bioassay (sulforhodamine B). Particulars: 48 h, SRB; for GI50: Homo sapiens, M14, read-out: GI50 in indicated cell line: M-14. The data set is classed as cell-based, human. Summed up: (§2)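 Cells were exposed to compound alongside matched solvent controls, then stained with sulforhodamine B. Percent growth inhibition was calculated from dye absorbance against the control.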

The test system of another data set is K562 cells. In words: Cell growth inhibition bioassay (sulforhodamine B). The data set is classed as cell-based, human. Particulars: 48 h, SRB; for GI50: Homo sapiens, K562, read-out: GI50 in indicated cell line: K562. The essentials: as §2
The test system of another data set is DU145 cells. In words: Cell growth inhibition bioassay (sulforhodamine B). The data set is classed as cell-based, human. Particulars: 48 h, SRB; for GI50: Homo sapiens, DU-145, read-out: GI50 in indicated cell line: DU145. Summed up:
as §1

The next data set relates to HT-29 cells. In words: Cell growth inhibition bioassay (sulforhodamine B). The data set is classed as cell-based, human. Particulars: 48 h, SRB; for GI50: Homo sapiens, HT-29, read-out: GI50 in indicated cell line: HT-29. The essentials: as §2
Data set [1] concerns Trypanosoma cruzi (Tulahuen C4). In words: In vitro anti-T. cruzi activity (β-galactosidase CPRG colorimetric assay in VERO monolayer). The data set is classed as cell-based. Particulars: for IC50 / inhibition at 10 µg/mL: Trypanosoma cruzi, TULAHUEN, Vero; for T. cruzi Inhib. (%) / inhibition at 10 µg/mL: 10 μg/mL of each compound, 120 hours; for inhibition at 10 µg/mL: 120 h, read-out: T. cruzi Inhib. (%).

For the next data set, the system named is PC3 cells. In words: Cell growth inhibition bioassay (sulforhodamine B). The data set is classed as cell-based. Particulars: Homo sapiens, PC-3; 48 h, SRB; read-out: GI50 in indicated cell line: PC3. The protocol: The cytotoxicity of compounds was assayed as follows. […] Appropriate solvent controls were tested for comparison. The percent inhibition of cell growth relative to the control was evaluated colorimetrically using a sulforhodamine B dye by comparison to the control. The calorimetric procedure followed that published in Skehan et al., J. Nat. Cancer Inst., […], pp. 1107-1112 (1990) and Boyd & Paull, Drug Dev. Res., Vol. 34, pp. 91-109 (1995). […] The cell lines are: 3T3 cells are BALB/3T3 clone A31 embryonic mouse fibroblast cells; H460 cells are human large cell lung cancer cells; DU145 cells are human prostate carcinoma cells; MCF-7 cells are human breast adenocarcinoma cells; M-14 cells are human melanoma cells; HT-29 cells are human colon adenocarcinoma cells; PC3 cells are human prostate adenocarcinoma cells; K562 cells are human chronic myelogenous leukemia cells; and VERO cells are African Green Monkey kidney epithelial cells.

A further data set deals with 3T3 cells. In words: Cell growth inhibition bioassay (sulforhodamine B). The data set is classed as cell-based, mouse. To be noted: 48 h, SRB; for GI50: Mus musculus, NIH3T3, read-out: GI50 in indicated cell line: 3T3. The essentials: as §2
Data set [2] concerns VERO cells. In words: Cell growth inhibition bioassay (sulforhodamine B). The data set is classed as cell-based, African Green Monkey. Particulars: 48 h, SRB. The essentials: as §2
For data set [3], the system named is M. tuberculosis H37Rv. Description: Conventional aerobic (MABA) culture assay, luminescence MIC. Particulars: aerobic, 7 days, H37Rv. The data set is classed as cell-based, Mycobacterium tuberculosis.
Another data set concerns VERO cell. In words: Cytotoxicity VERO cell (Table 6). Particulars: Table 6.
For data set [4], the system named is axenic amastigotes of L. amazonensis (strain MHOM/BR/76/LTB-012). To be noted: Table 8b.
Data set [5] deals with VERO cells. Description: Cytotoxicity on VERO cells (MTT), anti-T. cruzi study. To be noted: Lab B.
The test system of data set [6] is non-replicating persistence Mycobacterium tuberculosis (NRP-TB). In words: Low oxygen recovery assay (LORA). The data set is classed as cell-based. To be noted: anaerobic 10 days, 28 hour recovery; value in brackets.
A further data set relates to peritoneal macrophages. Description: Toxicity to peritoneal macrophages (Trypan Blue count). The data set is classed as cell-based, BALB/C mouse.
The test system of data set [7] is axenic amastigotes of L. amazonensis (strain MHOM/BR/76/LTB-012). Description: microbe, parasite or virus in culture. To be noted: Leishmania amazonensis.
In data set [8] the test system is M. tuberculosis H37Rv. Description: Anti-tuberculosis bioassay (tetrazolium microplate MIC). The data set is classed as cell-based. Particulars: Mycobacterium tuberculosis, read-out: Mycobacterium MIC H37Rv, Table 5.
A short description of data set [9]: Cytotoxicity on VERO cells (MTT), anti-T. cruzi study. To be noted: African green monkey, VERO cells.
The subject of the next data set is M. tuberculosis MDR. Description: Anti-tuberculosis bioassay (tetrazolium microplate MIC). The data set is classed as cell-based. Particulars: Mycobacterium tuberculosis, read-out: Mycobacterium MIC MDR.
Data set [10] has as its system VERO cells. In words: VERO cells IC50 (Table 5). The data set is classed as cell-based, African green monkey. Particulars: Chlorocebus sabaeus.
The nature of data set [11]: Toxicity to peritoneal macrophages (Trypan Blue count). The data set is classed as cell-based, BALB/C mouse. To be noted: BALB/C, mouse.
The mark [12] stands for this setting: Table 3, read-out: IC50 T. cruzi.

In turn, `COc1ccc(CCC(=O)c2c(O)cc(OC)cc2OC)cc1` [Compound I-03, 1-(2-Hydroxy-4,6-dimethoxyphenyl)-3-(4-methoxyphenyl)-1-propanone] showed a melting point of 107 °C. The GI50 in the data set on MCF-7 cells is over 197 µM. Also, the GI50 with H460 cells is over 197 µM. Further, the GI50 in the data set with M-14 cells was over 197 µM. Further, the GI50 in the data set with K562 cells was over 197 µM. Besides, the GI50 in the data set on DU145 cells is over 197 µM. For the same compound, the concentration for 50% growth inhibition (GI50) in the data set on HT-29 cells was over 197 µM. In addition, the IC50 in [1] (setting [12]) was over 100 µM. In the data set with PC3 cells, the 50% growth inhibitory concentration (GI50) is over 197 µM. The GI50 with 3T3 cells is over 197 µM.
Regarding `COc1cc(O)c(C(=O)CCc2ccc3c(c2)OCO3)c(OC)c1` [Compound I-04, 3-(1,3-Benzodioxol-5-yl)-1-(2-hydroxy-4,6-dimethoxyphenyl)-1-propanone], the melting point came out at 125 °C. In addition, in the data set with MCF-7 cells, the GI50 worked out at 42.4 µM. Further, the GI50 in the data set with H460 cells is 105 µM. Further, the GI50 in the data set on M-14 cells stood at 82 µM. For the same compound, in the data set on K562 cells, the GI50 was found to be 28.2 µM. For the same compound, the GI50 in the data set with DU145 cells came to 60.2 µM. In addition, in the data set with HT-29 cells, the GI50 is 145 µM. Further, in data set [1], the “T. cruzi Inhib. (%)” value is 12.96% and 3.24%. Moreover, the IC50 in [1] (setting [12]) was over 100 µM. Moreover, the GI50 in the data set with PC3 cells amounted to 39.1 µM. Moreover, the GI50 in the data set on 3T3 cells was 21.5 µM.
The compound `COc1ccc(CCC(=O)c2c(O)cc(O)cc2OC)cc1` [Compound I-07, 1-(2,4-Dihydroxy-6-methoxyphenyl)-3-(4-methoxyphenyl)-1-propanone] returned a melting point of 166 °C. In addition, the GI50 in the data set with MCF-7 cells amounted to 65.5 µM. Also, the GI50 in the data set with H460 cells stood at 128 µM. Also, the GI50 in the data set with M-14 cells is 109 µM. Also, the GI50 in the data set on K562 cells came to 22.8 µM. Besides, in the data set with DU145 cells, the GI50 is over 206 µM. Also, the GI50 in the data set on HT-29 cells was over 206 µM. Moreover, in data set [1], the “T. cruzi Inhib. (%)” value stood at 27.74% and the inhibition at 10 µg/mL was determined as 20.5%. Besides, the IC50 in data set [1] (setting [12]) is over 25 µM. The GI50 with PC3 cells was 59.9 µM. For the same compound, in the data set on 3T3 cells, the GI50 was over 206 µM.
Consider `FC(F)(F)c1ccccc1C=NNc1ncnc2sc3c(c12)CCCC3` [II-25], for which, in the data set on MCF-7 cells, the “GI50 in indicated cell line: MCF-7” value was determined as 1.8 µg/mL (≈ 4.78 µM). Further, the “GI50 in indicated cell line: H460” value in the data set with H460 cells is 2.0 µg/mL (≈ 5.31 µM). The “GI50 in indicated cell line: M-14” value with M-14 cells came out at 2.5 µg/mL (≈ 6.64 µM). In addition, the “GI50 in indicated cell line: K562” value with K562 cells came out at 0.6 µg/mL (≈ 1.59 µM). Besides, in the data set on DU145 cells, the “GI50 in indicated cell line: DU145” value came to 1.3 µg/mL (≈ 3.45 µM). Besides, the “GI50 in indicated cell line: HT-29” value in the data set on HT-29 cells is 1.7 µg/mL (≈ 4.52 µM). In addition, the “T. cruzi IC50 Lab A” value in data set [1] (Lab A) amounted to 0.5 µg/mL. In data set [1] (Lab B), the “T. cruzi IC50 Lab B” value came to 5.2 µg/mL. The “GI50 in indicated cell line: VERO” value with VERO cells [2] came out at 1.7 µg/mL (≈ 4.52 µM). Besides, in the data set on M. tuberculosis H37Rv [3], the “MIC MABA” value stood at 5.9 µg/mL (≈ 15.7 µM). Besides, the “Cytotoxicity VERO cell” value in the data set on VERO cell amounted to 7.6 µg/mL. Moreover, the figures for the IC50 (in data set [4] (read-out: L. amazonensis IC50); with peritoneal macrophages) were 0.4 µM and 1.2 µM, respectively. The “Cytotoxicity VERO Lab B” value in the data set with VERO cells [5] is given as 3.0. The “GI50 in indicated cell line: 3T3” value with 3T3 cells stood at 6.0 µg/mL (≈ 15.9 µM). Also, the “MIC LORA” value in data set [6] turned out to be 5.8 µg/mL (≈ 15.4 µM).
Take `Fc1ccccc1/C=N\Nc1ncnc2sc3c(c12)CCCC3` [II-27]: the GI50 was 24.5 µg/mL in the data set with MCF-7 cells; over 93.8 µg/mL with H460 cells; over 93.8 µg/mL in the data set on M-14 cells; 26.5 µg/mL in the data set with K562 cells; over 93.8 µg/mL with DU145 cells; over 93.8 µg/mL in the data set on HT-29 cells. Further, the GI50 in the data set with VERO cells [2] (Chlorocebus sabaeus, Vero, read-out: GI50 in indicated cell line: VERO) is over 93.8 µg/mL; in the data set with 3T3 cells, over 93.8 µg/mL. The IC50 in [7] (read-out: IC50 Cytotoxicity Against Amastigotes) was determined as 3.2 µM; in [7] (read-out: L. amazonensis IC50) it was 1.1 µM; in [1] (Lab B, read-out: T. cruzi IC50 Lab B), 3.5 µg/mL; in [1] (Table 2, read-out: IC50 - T. cruzi) it was 4.37 µg/mL; in data set [9] (Cytotoxicity VERO Lab B, Lab B), 6 µg/mL (≈ 18.4 µM); in data set [9] (IC50 - VERO Cytotoxicity, Table 2), 7 µg/mL (≈ 21.4 µM). The same compound came in with an IC50 in the data set with VERO cells [10] of 27.7 µg/mL (≈ 84.9 µM). In [1] (IC50, VERO/IC50, T. cruzi, Lab B), the “Selectivity Index Lab B” value amounted to 1.7. Also, the inhibition at 10 µg/mL in data set [1] came to 78.9%. The MIC against M. tuberculosis H37Rv [3] (Mycobacterium tuberculosis, 168 h) was over 100 µg/mL; in the data set with M. tuberculosis H37Rv [8], 3.12 µg/mL (≈ 9.56 µM); with M. tuberculosis MDR it was 3.12 µg/mL (≈ 9.56 µM). Moreover, the “Selectivity Index” value in data set [4] stood at 3.1. The IC50 at 48 h in [11] (Cytotoxicity Macrophages IC50) is 3.3 µM; in data set [11] (IC50 Cytotoxicity Against Macrophages), over 10 µM.
